Data reported in patent US20260297042A1, “BIARYLAMIDE DERIVATIVES AND THEIR USE AS PKMYT1 INHIBITORS” (CANCER RESEARCH TECHNOLOGY LIMITED, priority 2023, published 2026).
Counter-ions that a name gives are not always drawn.

How the values were obtained:
WEE1 = biological target: T1, WEE1 (Homo sapiens, UniProt P30291); test: Selectivity versus WEE1 assay (ADP-Glo enzymatic assay); type: biochemical; details: banded; for IC50: ADP-Glo, 15 nM WEE1, 60 minutes at 26° C.; for PKMYT1 vs. WEE1 selectivity: fold difference in selectivity for PKMYT1 over WEE1, ">N" = at least in this band but could be higher
T1 construct: purchased Thermo Fisher PR7373A
T1 sequence (P30291 whole entry): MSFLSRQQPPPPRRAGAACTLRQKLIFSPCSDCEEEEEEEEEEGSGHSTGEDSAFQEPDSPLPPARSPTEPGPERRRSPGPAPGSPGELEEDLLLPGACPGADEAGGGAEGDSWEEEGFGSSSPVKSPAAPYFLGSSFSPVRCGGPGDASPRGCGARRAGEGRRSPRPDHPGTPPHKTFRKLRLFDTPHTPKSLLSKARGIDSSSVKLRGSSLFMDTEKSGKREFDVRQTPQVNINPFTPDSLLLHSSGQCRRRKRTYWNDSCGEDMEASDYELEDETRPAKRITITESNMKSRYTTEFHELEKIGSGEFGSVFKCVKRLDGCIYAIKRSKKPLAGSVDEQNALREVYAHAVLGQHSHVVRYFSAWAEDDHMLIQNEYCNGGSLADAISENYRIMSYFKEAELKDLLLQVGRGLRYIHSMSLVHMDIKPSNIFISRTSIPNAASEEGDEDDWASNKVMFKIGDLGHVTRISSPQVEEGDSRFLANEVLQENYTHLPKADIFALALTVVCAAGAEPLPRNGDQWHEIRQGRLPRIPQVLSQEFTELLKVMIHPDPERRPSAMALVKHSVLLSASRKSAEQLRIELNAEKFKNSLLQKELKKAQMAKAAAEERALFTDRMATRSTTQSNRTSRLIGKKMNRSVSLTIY
Experimental: Selectivity versus WEE1 assay: Selectivity was established using the same format as outlined for PKMYT1. After dosing of compounds via the Echo acoustic dispenser—as described above—WEE1 (Thermo Fisher PR7373A) was added to each well at a final concentration of 15 nM in a buffer of 50 mM HEPES (pH 7.5), 10 mM MgCl2, 1 mM EGTA, 0.01% Brij-35, 1% DMSO. 30 µM ATP was added to start the reaction with the final assay volume being 4 μl. The plate was then incubated for 60 minutes at 26° C. before the addition of 4 μl of ADP-Glo Reagent. Following a further 60 minute incubation the assay signal was developed by the addition of 8 μl ADP-Glo Detection Reagent. After 60 minutes the luminescence signal was read on a PHERAStar FS microplate reader (BMG Labtech).
Data analysis: Data was captured and analysed within the Dotmatics Studies software module where dose response curves were generated and IC50 values determined. Acceptance and verification of data followed strict in-house business rules which are summarised as follows. […] Technical and biological replicates of each compound are routinely tested and replicate IC50 values must fall within 3-fold of each other with dose response curves showing ‘goodness of fit’ r2 values >0.9. Failure to meet any of these defined criteria result in rejection of data.

Human PKMYT1 = biological target: T2, Human PKMYT1 (Homo sapiens, UniProt Q99640); test: PKMYT1 biochemical ADP-Glo enzymatic assay; details: ADP-Glo; 15 nM PKMYT1 kinase domain, 500 µM ATP, 60 minutes at 26° C.; banded
T2 construct: Human PKMYT1 75-362 was cloned as a TEV cleavable 6xHis fusion; 6xHis (TEV cleavable) (cleaved yes); made in house; host or cells: bacterial cells
T2 sequence (Q99640 75-362): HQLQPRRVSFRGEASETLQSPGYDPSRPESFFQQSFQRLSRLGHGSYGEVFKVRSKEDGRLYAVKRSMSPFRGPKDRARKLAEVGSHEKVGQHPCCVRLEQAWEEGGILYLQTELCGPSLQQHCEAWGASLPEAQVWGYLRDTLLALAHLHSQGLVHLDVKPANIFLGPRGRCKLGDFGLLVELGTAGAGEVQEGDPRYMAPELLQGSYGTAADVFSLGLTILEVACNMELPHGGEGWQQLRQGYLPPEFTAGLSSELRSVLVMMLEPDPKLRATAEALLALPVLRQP
Outline: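 IC50 values come from 10-point 3-fold series, with replicates required within 3-fold and r2 >0.9. ADP formed by PKMYT1 intrinsic ATPase (500 uM ATP, 60 min, 26° C.) was quantified by ADP-Glo luminescence. The enzyme was the TEV-cleaved kinase domain 75-362 at 15 nM, in HEPES pH 7.5 buffer.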

IC50 (WEE1)	PKMYT1 vs. WEE1 selectivity (WEE1)	IC50 (Human PKMYT1)	SMILES
> 11000 nM	>X (100-<1000 fold)	50 to 1000 nM	Cc1ccc(O)c(C)c1NC(=O)c1cnc(NCCCN2CCOCC2)s1 [BAA-065, N-(3-hydroxy-2,6-dimethyl-phenyl)-2-(3-morpholinopropylamino)thiazole-5-carboxamide]
> 11000 nM	>X (100-<1000 fold)	50 to 1000 nM	Cc1ccc(O)c(C)c1NC(=O)c1cnc(NCC2CCN(C(=O)OC(C)(C)C)CC2)s1 [BAA-066]
> 11000 nM	>W (10-<100 fold)	1000 to 11000 nM	Cc1ccc(O)c(C)c1NC(=O)c1cnc(NC2CCN(S(C)(=O)=O)CC2)s1 [BAA-067, N-(3-hydroxy-2,6-dimethyl-phenyl)-2-[(1-methylsulfonyl-4-piperidyl)amino]thiazole-5-carboxamide]
> 11000 nM	>X (100-<1000 fold)	50 to 1000 nM	Cc1ccc(O)c(C)c1NC(=O)c1cnc(NCCNC(=O)OC(C)(C)C)s1 [BAA-068, tert-butyl N-[2-[5-[(3-hydroxy-2,6-dimethyl-phenyl)carbamoyl]thiazol-2-yllamino]ethyl]carbamate]
> 11000 nM	>X (100-<1000 fold)	50 to 1000 nM	Cc1ccc(O)c(C)c1NC(=O)c1cnc(NCCCN2CCS(=O)(=O)CC2)s1 [BAA-072, 2-[3-(1,1-dioxo-1,4-thiazinan-4-yl)propylamino]-N-(3-hydroxy-2,6-dimethyl-phenyl)thiazole-5-carboxamide]
> 11000 nM	>X (100-<1000 fold)	50 to 1000 nM	Cc1ccc(O)c(C)c1NC(=O)c1cnc(NCCCN2CCN(C(=O)OC(C)(C)C)CC2)s1 [BAA-073, tert-butyl 4-[3-[[5-[(3-hydroxy-2,6-dimethyl-phenyl)carbamoyl]thiazol-2-yl]amino]propyl]piperazine-1-carboxylate]
> 11000 nM	>W (10-<100 fold)	1000 to 11000 nM	CCC(=O)NCCCNc1ncc(C(=O)Nc2c(C)ccc(O)c2C)s1 [BAA-076, N-(3-hydroxy-2,6-dimethyl-phenyl)-2-[3-(propanoylamino)propylamino]thiazole-5-carboxamide]
> 11000 nM	>X (100-<1000 fold)	50 to 1000 nM	CCC(=O)N1CCC(CNc2ncc(C(=O)Nc3c(C)ccc(O)c3C)s2)CC1 [BAA-077, N-(3-hydroxy-2,6-dimethyl-phenyl)-2-[(1-propanoyl-4-piperidyl)methylamino]thiazole-5-carboxamide]
> 11000 nM	>X (100-<1000 fold)	50 to 1000 nM	Cc1ccc(O)c(C)c1NC(=O)c1cnc(NCCC(=O)N2CCOCC2)s1 [BAA-078, N-(3-hydroxy-2,6-dimethyl-phenyl)-2-[(3-morpholino-3-oxo-propyl)amino]thiazole-5-carboxamide]
> 11000 nM	>W (10-<100 fold)	1000 to 11000 nM	Cc1ccc(O)c(C)c1NC(=O)c1cnc(NCC2CCNCC2)s1 [BAA-079, N-(3-hydroxy-2,6-dimethyl-phenyl)-2-(4-piperidylmethylamino)thiazole-5-carboxamide hydrochloride]
> 11000 nM	>X (100-<1000 fold)	50 to 1000 nM	Cc1ccc(O)c(C)c1NC(=O)c1cnc(Nc2ccn([C@@H]3CCN(C(=O)C(C)(C)C)C3)n2)s1 [BAA-080, 2-[[1-[(3R)-1-(2.2-Dimethylpropanoyl)pyrrolidin-3-yl]pyrazol-3-yl]amino]-N-(3-hydroxy-2,6-dimethyl-phenyl)thiazole-5-carboxamide]
> 11000 nM	>X (100-<1000 fold)	50 to 1000 nM	Cc1ccc(O)c(C)c1NC(=O)c1cnc(Nc2ccn([C@@H]3CCN(C(=O)CC(C)(C)C)C3)n2)s1 [BAA-081, 2-[[1-[(3R)-1-(3,3-dimethylbutanoyl)pyrrolidin-3-yl]pyrazol-3-yl]amino]-N-(3-hydroxy-2,6-dimethyl-phenyl)thiazole-5-carboxamide]
> 11000 nM	>X (100-<1000 fold)	50 to 1000 nM	Cc1ccc(O)c(C)c1NC(=O)c1cnc(Nc2ccn([C@@H]3CCN(C(=O)C4CCOCC4)C3)n2)s1 [BAA-082]
> 11000 nM	>Y (1000-5000 fold)	50 to 1000 nM	Cc1ccc(O)c(C)c1NC(=O)c1cnc(Nc2ccn([C@@H]3CCN(C(=O)Cc4ccccc4)C3)n2)s1 [BAA-083]
> 11000 nM	>Y (1000-5000 fold)	50 to 1000 nM	Cc1ccc(O)c(C)c1NC(=O)c1cnc(Nc2ccn([C@@H]3CCN(C(=O)CC(F)(F)F)C3)n2)s1 [BAA-084]
> 11000 nM	>Y (1000-5000 fold)	< 50 nM	CCC(=O)N1CC[C@@H](n2ccc(Nc3ncc(C(=O)Nc4c(C)ccc(O)c4C)s3)n2)C1 [BAA-085]
> 11000 nM	>Y (1000-5000 fold)	50 to 1000 nM	Cc1ccc(O)c(C)c1NC(=O)c1cnc(Nc2ccn([C@@H]3CCN(C(=O)C(C)C)C3)n2)s1 [BAA-086]
> 11000 nM	–	50 to 1000 nM	Cc1ccc(O)c(C)c1NC(=O)c1cnc(Nc2ccn([C@@H]3CCN(C(=O)c4ccccc4)C3)n2)s1 [BAA-087]
> 11000 nM	>X (100-<1000 fold)	50 to 1000 nM	Cc1ccc(O)c(C)c1NC(=O)c1cnc(Nc2ccn([C@@H]3CCN(C(=O)COc4ccccc4)C3)n2)s1 [BAA-088]
> 11000 nM	>X (100-<1000 fold)	50 to 1000 nM	COc1ccc(CC(=O)N2CC[C@@H](n3ccc(Nc4ncc(C(=O)Nc5c(C)ccc(O)c5C)s4)n3)C2)cc1 [BAA-089]
> 11000 nM	>X (100-<1000 fold)	50 to 1000 nM	Cc1ccc(O)c(C)c1NC(=O)c1cnc(Nc2ccn([C@@H]3CCN(C(=O)CC4CCOCC4)C3)n2)s1 [BAA-090]
> 11000 nM	>X (100-<1000 fold)	50 to 1000 nM	COC(=O)CCC(=O)N1CC[C@@H](n2ccc(Nc3ncc(C(=O)Nc4c(C)ccc(O)c4C)s3)n2)C1 [BAA-091]
> 11000 nM	>X (100-<1000 fold)	50 to 1000 nM	COCC(=O)N1CC[C@@H](n2ccc(Nc3ncc(C(=O)Nc4c(C)ccc(O)c4C)s3)n2)C1 [BAA-092]
> 11000 nM	>X (100-<1000 fold)	50 to 1000 nM	Cc1ccc(O)c(C)c1NC(=O)c1cnc(Nc2ccn([C@@H]3CCN(C(=O)Cc4ccc(F)cc4)C3)n2)s1 [BAA-093]
> 11000 nM	>X (100-<1000 fold)	50 to 1000 nM	Cc1ccc(O)c(C)c1NC(=O)c1cnc(Nc2ccn([C@@H]3CCN(C(=O)C(C)(C)c4ccccc4)C3)n2)s1 [BAA-094]
> 11000 nM	>Y (1000-5000 fold)	50 to 1000 nM	Cc1ccc(O)c(C)c1NC(=O)c1cnc(Nc2ccn([C@@H]3CCN(C(=O)Cc4ccccc4F)C3)n2)s1 [BAA-095]
> 11000 nM	>Y (1000-5000 fold)	50 to 1000 nM	Cc1ccc(O)c(C)c1NC(=O)c1cnc(Nc2ccn([C@@H]3CCN(C(=O)CC(C)C)C3)n2)s1 [BAA-096, N-(3-hydroxy-2,6-dimethyl-phenyl)-2-[[1-[(3R)-1-(3-methylbutanoyl)pyrrolidin-3-yl]pyrazol-3-yl]amino]thiazole-5-carboxamide]
> 11000 nM	>X (100-<1000 fold)	50 to 1000 nM	Cc1ccc(O)c(C)c1NC(=O)c1cnc(Nc2ccn([C@@H]3CCN(C(=O)CC4CCCCC4)C3)n2)s1 [BAA-097]
> 11000 nM	>X (100-<1000 fold)	50 to 1000 nM	Cc1ccc(O)c(C)c1NC(=O)c1cnc(Nc2ccn([C@@H]3CCN(C(=O)Cc4cccs4)C3)n2)s1 [BAA-098]
> 11000 nM	>X (100-<1000 fold)	50 to 1000 nM	Cc1ccc(O)c(C)c1NC(=O)c1cnc(Nc2ccn([C@@H]3CCN(C(=O)C(F)(F)c4ccccc4)C3)n2)s1 [BAA-099, 2-[[1-[(3R)-1-(2,2-Difluoro-2-phenyl-acetyl)pyrrolidin-3-yl]pyrazol-3-yl]amino]-N-(3-hydroxy-2,6-dimethyl-phenyl)thiazole-5-carboxamide]
